Assays:
[1] = tested on: enzyme having fructose transferase activity derived from a Penicillium microorganism; assay: Properties of the novel Penicillium enzyme: substrate specificity, inhibition, kinetics; assay type: biochemical, Penicillium roqueforti
Method: In the case of an enzyme derived from a Penicillium microorganism, the quantity of enzyme which can produce 1 μmol of 1-kestose in 1 minute at 50° C., pH 7.0, and a substrate (sucrose) concentration of 10 wt %; and The enzyme is prepared from a Penicillium microorganism, preferably from Penicillium roqueforti, specifically Penicillium roqueforti IAM7254 strain. The enzyme can be recovered from a culture by incubating the microorganism in a suitable medium (e.g., a medium containing 5 to 30% of sucrose, 1 to 10% of corn steep liquor, 0.05 to 0.3% of urea, 0.2 to 3.0 of potassium dihydrogenphosphate, and 0.01 to 0.1% of magnesium sulfate heptahydrate), at initial pH of 6.5 to 7.5 and a temperature of 25 to 30° C. for 2 to 5 days.

[2] = tested on: enzyme having fructose transferase activity derived from a Scopulariopsis microorganism; assay: Properties of the novel Scopulariopsis enzyme: substrate specificity, inhibition, kinetics; assay type: biochemical, Scopulariopsis brevicaulis
Method: In the case of an enzyme derived from a Scopulariopsis microorganism, the quantity of enzyme which can produce 1 μmol of 1-kestose in 1 minute at 40° C., pH 7.0, and a substrate (sucrose) concentration of 10 wt %.
The enzyme is prepared from a Scopulariopsis microorganism, preferably from Scopulariopsis brevicaulis, specifically Scopulariopsis brevicaulis IF04843 strain.
The enzyme can be recovered from a culture by incubating the microorganism in a suitable medium (e.g., a medium containing 3.0 to 10.0% of sucrose, 5 to 15% of corn steep liquor, 0.05 to 0.3% of urea, 0.2 to 3.0 of potassium dihydrogenphosphate, and 0.01 to 0.1% of magnesium sulfate heptahydrate), at initial pH of 6.5 to 7.5 and a temperature of 20 to 30° C. for 3 to 8 days. The enzyme is prepared preferably by recovering the fungus body from the culture using a centrifuge such as a basket type; suspending the recovered fungus body in a buffer at pH 7.0; obtaining a crude enzyme suspension by an ultrasonic treatment and a membrane treatment; then treating with anion exchange, gel filtration, chromatographic focusing, or other procedure on the crude enzyme suspension.
The freeze-dried fungus body powder prepared above was suspended in a McIlvaine buffer (pH 7.0), and ultrasonically crushed. The crushed cells were ultrafiltrated through a membrane filter (cutoff molecular weight: 100,000).

[3] = Decomposition of 1-kestose in the decolorizing and desalting procedure; assay type: physicochemical; conditions: activated carbon at 60° C. for 20 minutes, cation and anion exchange resin
Method: (§1) The deactivated solution was filtered to remove any impurities such as the fungus body and the activated carbon. Then, activated carbon (Taiko activated carbon S-W50) was added to the filtrate at a rate of 0.5% of the solids content, and stirred at a temperature of 60° C. for 20 minutes to decolorize again. After filtrating to remove the activated carbon in the same manner as above, the solution was desalted through cation and anion exchange resin, then filtrated again to make a colorless and transparent 1-kestose solution (chromatographic sample).
as §1, with “per” for “of the”
The deactivated solution was filtered to remove any impurities such as the fungus body and the activated carbon. […]

| SMILES | Substrate specificity (enzyme acts on sugar) [1] | Substrate specificity (enzyme acts on sugar) [2] | decomposition of 1-kestose [3] |
| --- | --- | --- | --- |
| OC[C@H]1O[C@H](O[C@H]2[C@H](O)[C@@H](O)C(O)O[C@@H]2CO)[C@H](O)[C@@H](O)[C@@H]1O (mixture of isomers) [maltose] | not on | not on | – |
| OC[C@H]1O[C@@](CO)(OC[C@@]2(O[C@H]3O[C@H](CO)[C@@H](O)[C@H](O)[C@H]3O)O[C@H](CO)[C@@H](O)[C@@H]2O)[C@@H](O)[C@@H]1O [Example 1-kestose, 1-kestose] | effectively acts on | effectively acts on | hardly observed |
| O=C(CO)[C@@H](O[C@H]1O[C@H](CO)[C@@H](O)[C@H](O)[C@H]1O)[C@H](O)[C@H](O)CO [turanose] | not on | not on | – |

Next, values leading:

| Substrate specificity (enzyme acts on sugar) [1] | Substrate specificity (enzyme acts on sugar) [2] | decomposition of 1-kestose [3] | SMILES |
| --- | --- | --- | --- |
| effectively acts on | effectively acts on | – | OC[C@H]1O[C@H](OC[C@H]2O[C@H](O[C@]3(CO)O[C@H](CO)[C@@H](O)[C@@H]3O)[C@H](O)[C@@H](O)[C@@H]2O)[C@H](O)[C@@H](O)[C@H]1O [raffinose] |
| effectively acts on | effectively acts on | – | OC[C@H]1O[C@@](CO)(O[C@H]2O[C@H](CO)[C@@H](O)[C@H](O)[C@H]2O)[C@@H](O)[C@@H]1O [sucrose] |

— patent US6479657B1, “Crystalline 1-kestose and process for preparing the same” (Meiji Seika Kaisha, Ltd., priority 1995, dated 2002)
